Experimental data reported in US10624347B2, “Herbicidal composition and method for controlling weeds” (Sumitomo Chemical Company, Limited, priority 2016, dated 2020).

Tests used:
Echinochloa crus-galli = assay: Foliar spray on potted weeds at two to three leaf stage in greenhouse, herbicidal effect (Example 101); format: in vivo, inubie (common barnyardgrass; Echinochloa crus-galli); conditions: one week after spray
Procedure: (§1) A plastic pot was filled with a commercially-available culture soil, and thereto inubie (common barnyardgrass; Echinochloa crus-galli) or akinoenokorogusa (giant foxtail; Setaria faberi) was seeded, and covered with the soil to about 0.5 cm, followed by growing the weeds in a greenhouse. When the weeds grew to two to three leaf stage, a spray liquid of the compound X, a spray liquid of pyroxasulfone, or a spray liquid of the present composition was uniformly sprayed to the whole plants so that the application rate might be a predetermined value. The spray liquid of the present composition was prepared by mixing the spray liquid of the compound X with the spray liquid of pyroxasulfone. The spray liquid of the compound X was prepared by mixing a predetermined amount of the formulation X with deionized water. The spray liquid of pyroxasulfone was prepared by dissolving pyroxasulfone with a 2 wt % solution of TWEEN® (polyoxyethylenesorbitan fatty acid ester, manufactured by MP Biomedicals) in dimethylformamide, followed by mixing with deionized water. After applying the spray liquid, the plants were placed in a greenhouse for a week. A herbicidal effect was evaluated by classifying the effect into 101 stages from 0 (no effect) to 100 (completely dead).
(§2) The expected value of the herbicidal effect in the case of mixed use was calculated from the result of the herbicidal effect in the case of single use of each of the compounds (the value of A or B) according to the formula of Colby ((expected value)=100−(100−A)×(100−B)/100).

Setaria faberi = assay: as above; format: in vivo, akinoenokorogusa (giant foxtail; Setaria faberi); conditions: one week after spray
Procedure: as §1, §2

[1] = pyroxasulfone 10 g/ha alone, scale 0 to 100
[2] = pyroxasulfone 100 g/ha alone, scale 0 to 100
[3] = Compound X 5 g/ha alone, scale 0 (no effect) to 100 (completely dead)
[4] = Compound X 10 g/ha alone, scale 0 to 100

| Compound | Herbicidal effect on Echinochloa crus-galli (observed value) (Echinochloa crus-galli; [1]) | Herbicidal effect on Echinochloa crus-galli (observed value) (Echinochloa crus-galli; [2]) | Herbicidal effect on Setaria faberi (observed value) (Setaria faberi; [1]) | Herbicidal effect on Setaria faberi (observed value) (Setaria faberi; [2]) | Herbicidal effect on Echinochloa crus-galli (observed value) (Echinochloa crus-galli; [3]) | Herbicidal effect on Echinochloa crus-galli (observed value) (Echinochloa crus-galli; [4]) | Herbicidal effect on Setaria faberi (observed value) (Setaria faberi; [3]) | Herbicidal effect on Setaria faberi (observed value) (Setaria faberi; [4]) |
| --- | --- | --- | --- | --- | --- | --- | --- | --- |
| Cn1nc(C(F)(F)F)c(CS(=O)(=O)C2=NOC(C)(C)C2)c1OC(F)F [pyroxasulfone] | 0 | 0 | 0 | 0 |  |  |  |  |
| CCOC(=O)COc1ncccc1Oc1cc(-n2c(=O)cc(C(F)(F)F)n(C)c2=O)c(F)cc1Cl [Compound X, ethyl [3-[2-chloro-4-fluoro-5-(1-methyl-6-trifluoromethyl-2,4-dioxo-1,2,3,4-tetrahydropyrimidin-3-yl)phenoxy]-2-pyridyloxy]acetate] |  |  |  |  | 20 | 35 | 30 | 45 |
